From patent US6960575B2, “Thiazine derivatives” (Santen Pharmaceutical Co., Ltd., priority 1999, dated 2005)

biological target: T1, chymase extracted from a dog cardiac tissue (Canis lupus familiaris, UniProt P21842); test: Chymase inhibitory effect (liberation of His-Leu from angiotensin I, fluorescence); format: biochemical; details: substrate angiotensin I; 37° C., one hour; pH 8 reaction buffer; read-out: IC50 (concentration required to inhibit the chymase enzymatic activity by 50%)
T1 construct: The obtained supernatant is used as a chymase enzyme solution; from tissue; host or cells: beagle heart, left ventricle (2.0 M KCl / 1% Triton X-100 extract)
T1 sequence (P21842 22-249): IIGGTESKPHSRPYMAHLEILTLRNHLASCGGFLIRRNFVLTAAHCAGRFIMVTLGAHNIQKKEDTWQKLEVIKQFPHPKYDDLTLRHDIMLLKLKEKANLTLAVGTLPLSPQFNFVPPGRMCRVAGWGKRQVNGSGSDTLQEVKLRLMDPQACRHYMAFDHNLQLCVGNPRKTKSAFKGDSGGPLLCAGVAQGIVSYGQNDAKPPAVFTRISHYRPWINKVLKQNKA
Source text: Chymase (enzyme) causes angiotensin I (substrate) to liberate a dipeptide (His-Leu) by the enzyme reaction with the substrate. It was reported that an enzymatic activity of chymase can be measured by measuring fluorescence intensity of the resulting peptide (Biochem. Biophys. Res. Com., 149 (3) 1186 (1987)). Since drugs having chymase inhibitory activities suppress this liberation of the dipeptide, the chymase inhibitory activities of the drugs can be measured by measuring fluorescence intensity. In the present pharmacological test, chymase inhibitory effects of the present compounds were studied by using chymase extracted from a dog cardiac tissue (J. Biol. Chem., 265 (36), 22348 (1990)).
• 1. A beagle is killed by drawing blood under Nembutal anesthesia, a heart is enucleated, and left ventricle is separated. • 2. This left ventricle is finely minced, and the tissue weight is measured. • 3. A 0.02 M Tris-HCl buffer (pH 7.4) is added to the tissue in an amount of 10 times by volume the tissue weight. The obtained mixture is homogenized at 8,000 rpm for 20 seconds and then centrifuged at 4° C. and 21,000 rpm for 30 minutes, and the resulting supernatant is discarded. • 4. The same procedure as the above 3 is repeated twice for the residue. Then, a 0.02 M Tris-HCl buffer (pH 7.4) containing 1% Triton X-100 and 0.01 M potassium chloride is added to the residue in an amount of 10 times by volume the amount of the residue. The obtained mixture is homogenized at 8,000 rpm for 20 seconds, then incubated at 4° C. for one hour and centrifuged at 21,000 rpm for 30 minutes, and the supernatant is discarded. • 5. A 0.02 M Tris-HCl buffer (pH 7.4) containing 1% Triton X-100 and 0.5 M potassium chloride is added to the residue in an amount of 10 times by volume the amount of the residue. The obtained mixture is homogenized at 8,000 rpm for 20 seconds, then incubated at 4° C. for one hour and centrifuged at 21,000 rpm for 30 minutes, and the supernatant is discarded. • 6. A 0.02 M Tris-HCl buffer (pH 7.4) containing 1% Triton X-100 and 2.0 M potassium chloride is added to the residue in an amount of 10 times the amount of the residue. The obtained mixture is homogenized at 8,000 rpm for 20 seconds, then incubated at 4° C. for one hour and centrifuged at 21,000 rpm for 30 minutes. The obtained supernatant is used as a chymase enzyme solution. [2. Preparation of Reaction Buffer]
Tris-HCl and disodium ethylenediaminetetraacetate are dissolved in water so that their concentrations are 92.3 mM and 12.0 mM respectively to prepare a reaction buffer adjusted to pH 8.
Angiotensin I is dissolved in water to prepare a 1.54 mM substrate solution.
A test compound is dissolved in dimethyl sulfoxide to prepare 3.0×10^−3M, 3.0×10^−4 M, 3.0×10^−5 M and 3.0×10^−6 M test compound solutions.
• 1. The reaction buffer (32.5 μl), the substrate solution (75.0 μl), the chymase enzyme solution (37.5 μl) and the test compound solution (5 μl) are mixed. • 2. The obtained mixture is incubated at 37° C. for one hour. • 3. To the mixture is added 15% trichloroacetic acid (225 μl), and the whole is centrifuged at 4° C. and 14,000 rpm for five minutes. • 4. The supernatant is taken out. A 1% orthophthalaldehyde/methanol solution (165 μl) is added to 300 μl of this supernatant, and the whole is stirred and allowed to stand at room temperature for 10 minutes. • 5. 1.5 M Hydrochloric acid (300 μl) is added to the resulting mixture, and the whole is stirred and centrifuged at 4° C. and 14,000 rpm for two minutes. • 6. The supernatant is taken out and irradiated with light having a wavelength of 340 nm, and fluorescence intensity is measured at a wavelength of 455 nm.
The blank of this test is defined as follows. […]

| Compound | IC50 [nM] |
| --- | --- |
| CC(C)OC(=O)C(=O)[C@H](Cc1ccccc1)NC(=O)CN1C(=O)C(C(C)C)N(C(=O)c2cccnc2)C=C1c1ccccc1 (mixture of isomers) [Compound No. 2-31, Isopropyl (3S)-3-{(3RS)-3-isopropyl-2-oxo-6-phenyl-4-(3-pyridylcarbonyl)-1,2,3,4-tetrahydropyrazin-1-yl}methylcarbonylamino-2-oxo-4-phenylbutyrate] | 210 |
| CC(C)OC(=O)C(=O)[C@H](Cc1ccccc1)NC(=O)CN1C(=O)C(C(C)C)N(C(=O)c2ccncc2)C=C1c1ccccc1 (mixture of isomers) [Compound No. 2-32, Isopropyl (3S)-3-{(3RS)-3-isopropyl-2-oxo-6-phenyl-4-(4-pyridylcarbonyl)-1,2,3,4-tetrahydropyrazin-1-yl}methylcarbonylamino-2-oxo-4-phenylbutyrate] | 360 |
| CC(C)OC(=O)C(=O)[C@H](Cc1ccccc1)NC(=O)CN1C(=O)C(C(C)C)N(S(=O)(=O)c2ccccc2)C=C1c1ccccc1 (mixture of isomers) [Compound No. 2-34, Isopropyl (3S)-3-{(3RS)-4-benzenesulfonyl-3-isopropyl-2-oxo-6-phenyl-1,2,3,4-tetrahydropyrazin-1-yl}methylcarbonylamino-2-oxo-4-phenylbutyrate] | 250 |
| CC(=O)N1C=C(c2ccccc2)N(CC(=O)N[C@@H](Cc2ccccc2)C(=O)c2nc3ccccc3s2)C(=O)C1C(C)C (mixture of isomers) [Compound No. 2-46, (2S)-2-{(3RS)-4-Acetyl-3-isopropyl-2-oxo-6-phenyl-1,2,3,4-tetrahydropyrazin-1-yl}methylcarbonylamino-1-(1,3-benzothiazol-2-yl)-1-oxo-3-phenylpropane] | 3800 |
| CC(=O)N1C=C(c2ccccc2)N(CC(=O)N[C@@H](Cc2ccccc2)C(=O)C2=NCCO2)C(=O)C1C(C)C (mixture of isomers) [Compound No. 2-47, (2S)-2-{(3RS)-4-Acetyl-3-isopropyl-2-oxo-6-phenyl-1,2,3,4-tetrahydropyrazin-1-yl}methylcarbonylamino-1-(4,5-dihydro-1,3-oxazol-2-yl)-1-oxo-3-phenylpropane] | 500 |
| CC(=O)N1C=C(c2ccccc2)N(CC(=O)N[C@@H](Cc2ccccc2)C(=O)C2=NCCS2)C(=O)C1C(C)C (mixture of isomers) [Compound No. 2-48, (2S)-2-{(3RS)-4-Acetyl-3-isopropyl-2-oxo-6-phenyl-1,2,3,4-tetrahydropyrazin-1-yl}methylcarbonylamino-1-(4,5-dihydro-1,3-thiazol-2-yl)-1-oxo-3-phenylpropane] | 1200 |
| CC(C)OC(=O)C(=O)[C@H](Cc1ccccc1)NC(=O)CN1C(=O)C(C(C)C)SC=C1c1ccccc1 (mixture of isomers) [Compound No. 2-63, Isopropyl (3S)-3-{(2RS)-2-isopropyl-3-oxo-5-phenyl-3,4-dihydro-2H-1,4-thiazin-4-yl}methylcarbonylamino-2-oxo-4-phenylbutyrate] | 320 |
| COc1ccc(C2=CSC(C(C)C)C(=O)N2CC(=O)N[C@@H](Cc2ccccc2)C(=O)C(=O)OC(C)C)cc1 (mixture of isomers) [Compound No. 2-65, Isopropyl (3S)-3-{(2RS)-2-isopropyl-5-(4-methoxyphenyl)-3-oxo-3,4-dihydro-2H-1,4-thiazin-4-yl}methylcarbonylamino-2-oxo-4-phenylbutyrate] | 280 |
| CC(C)C1C(=O)N(CC(=O)N[C@@H](Cc2ccccc2)C(=O)C2=NC(C)(C)CO2)C(c2ccccc2)=CN1C(=O)c1ccccc1 (mixture of isomers) [Compound No. 10-7, (2S)-2-{(3RS)-4-Benzoyl-3-isopropyl-2-oxo-6-phenyl-1,2,3,4-tetrahydropyrazin-1-yl}methylcarbonylamino-1-(4,4-dimethyl-4,5-dihydro-1,3-oxazol-2-yl)-1-oxo-3-phenylpropane] | 370 |
| CC(=O)N1C=C(c2ccccc2)N(CC(=O)NC(Cc2ccccc2)C(=O)C(F)(F)F)C(=O)C1C(C)C (racemic) [Compound No. 4-1, (3RS)-3-{(3RS)-4-Acetyl-3-isopropyl-2-oxo-6-phenyl-1,2,3,4-tetrahydropyrazin-1-yl}methylcarbonylamino-2-oxo-4-phenyl-1,1,1-trifluorobutane] | 1500 |
| CC(C)OC(=O)C(=O)[C@H](Cc1ccccc1)NC(=O)CN1C(=O)[C@@H](C(C)C)N(C(=O)c2ccccc2)C=C1c1ccccc1 [Compound No. 2-22, Isopropyl (3S)-3-{(3R)-4-benzoyl-3-isopropyl-2-oxo-6-phenyl-1,2,3,4-tetrahydropyrazin-1-yl}methylcarbonylamino-2-oxo-4-phenylbutyrate] | 200 |

tested on: not given; test: not given; details: not given

| Compound | melting point [°C] |
| --- | --- |
| CC(C)[C@@H]1C(=O)N(CC(=O)N[C@@H](Cc2ccccc2)C(=O)C2=NC(C)(C)CO2)C(c2ccccc2)=CN1C(=O)c1ccc[n+](CC(N)=O)c1.[Br-] | 110 |
| CC(C)[C@@H]1C(=O)N(CC(=O)N[C@@H](Cc2ccccc2)C(=O)C2=NCC(C)(C)S2)C(c2ccccc2)=CN1C(=O)c1ccncc1 [Compound No. 10-10, (2S)-1-(5,5-Dimethyl-4,5-dihydro-1,3-thiazol-2-yl)-2-{(3R)-3-isopropyl-2-oxo-6-phenyl-4-(4-pyridylcarbonyl)-1,2,3,4-tetrahydropyrazin-1-yl}methylcarbonylamino-1-oxo-3-phenylpropane] | 100 to 125 |
| CC(C)[C@@H]1C(=O)N(CC(=O)N[C@@H](Cc2ccccc2)C(=O)C2=NC(C)(C)CO2)C(c2ccccc2)=CN1C(=O)c1ccc[n+](Cc2ccccc2)c1.[Br-] [Compound No. 21-3, 1-Benzyl-3-[(2R)-4-{(1S)-1-benzyl-2-(4,4-dimethyl-4,5-dihydro-1,3-oxazol-2-yl)-2-oxoethylcarbamoylmethyl}-2-isopropyl-3-oxo-5-phenyl-1,2,3,4-tetrahydro-1-pyrazinylcarbonyl]pyridinium bromide] | 135 to 150 |
| CC(C)[C@@H]1C(=O)N(CC(=O)N[C@@H](Cc2ccccc2)C(=O)C2=NC(C)(C)CO2)C(c2ccccc2)=CN1C(=O)c1cc[n+](CC(N)=O)cc1.[I-] [Compound No. 21-12, 4-{(2R)-4-[(1S)-1-Benzyl-2-(4,4-dimethyl-4,5-dihydro-1,3-oxazol-2-yl)-2-oxoethylcarbamoylmethyl]-2-isopropyl-3-oxo-5-phenyl-1,2,3,4-tetrahydro-1-pyrazinylcarbonyl}-1-(carbamoylmethyl)pyridinium iodide] | 78 to 85 |
